Results: patent publication US12052991B2, “Substituted pyridinyloxybenzenes and salts thereof and use thereof as herbicidal agents” (Bayer Aktiengesellschaft, priority 2018, dated 2024)

Columns and labels:
Assay type in all cases: in vivo
Stellaria media (STEME) [1] = assay: Herbicidal post-emergence action (Table B8); details: visual rating about 3 weeks after treatment, 100% = plants have died, 0% = like control plants
In short: (§1)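 Application rates of 1280 or 320 g/ha were tested post-emergence on one-leaf-stage greenhouse plants in sandy loam, using WP or EC formulations with 0.5% additive at 600 L/ha. Activity was rated visually against untreated plants about 3 weeks later.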

[2] = system: Abutilon theophrasti (ABUTH); assay: Herbicidal pre-emergence action, test C (Table C5); details: visual scoring after about 3 weeks, 100% = plants have died, 0% = like control plants
In short: (§2)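 First, weed seeds were sown in sandy loam and covered with soil. Next, aqueous WP/EC preparations plus 0.5% additive were applied to the surface at 600 L/ha (1280 or 320 g/ha). Finally, plants grew in a greenhouse ~3 weeks before visual % scoring against controls.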

[3] = system: Digitaria sanguinalis (DIGSA); assay: Herbicidal post-emergence action (Table B10); details: dosage 1280 g/ha; visual rating about 3 weeks after treatment; 100% = plants have died, 0% = like control plants
In short: as §1

Bassia scoparia (KCHSC) [4] = assay: Herbicidal post-emergence action (Table B11); details: visual rating about 3 weeks after treatment, 100% = plants have died, 0% = like control plants
In short: as §1

[5] = system: Alopecurus myosuroides (ALOMY); assay: Herbicidal pre-emergence action, test C (Table C9); details: visual scoring after about 3 weeks, 100% = plants have died, 0% = like control plants
Source text: (§3) Seeds of mono- and dicotyledonous weed plants were placed in plastic pots in sandy loam soil (doubly sown with one species each of mono- or dicotyledonous weed plants per pot) and covered with soil. The compounds of the invention, formulated in the form of wettable powders (WP) or as emulsion concentrates (EC), were then applied onto the surface of the covering soil as aqueous suspension or emulsion with addition of 0.5% additive at a water application rate of 600 liters per hectare (converted). After the treatment, the pots were placed in a greenhouse and kept under good growth conditions for the test plants. After about 3 weeks, the effect of the preparations was scored visually in comparison with untreated controls as percentages. For example, 100% activity=the plants have died, 0% activity=like control plants. Tables C1 to C12 below show the effects of selected compounds of the general formula (I) according to Table 1 on various harmful plants and an application rate corresponding to 1280 or 320 g/ha, which were obtained by the experimental procedure mentioned above.

Veronica persica (VERPE) [6] = assay: Herbicidal post-emergence action (Table B12); details: visual rating about 3 weeks after treatment, 100% = plants have died, 0% = like control plants
In short: as §1

[7] = system: Echinochloa crus-galli (ECHCG); assay: Herbicidal pre-emergence action, test C (Table C1); details: dosage 1280 g/ha; visual scoring after about 3 weeks; 100% = plants have died, 0% = like control plants
Source text: as §3

Stellaria media (STEME) [8] = assay: Herbicidal pre-emergence action, test C (Table C8); details: visual scoring after about 3 weeks, 100% = plants have died, 0% = like control plants
In short: as §2

Setaria viridis (SETVI) = assay: Herbicidal pre-emergence action, test C (Table C4); details: visual scoring after about 3 weeks, 100% = plants have died, 0% = like control plants
In short: as §2

Poa annua (POAAN) [9] = assay: Herbicidal pre-emergence action, test C (Table C3); details: visual scoring after about 3 weeks, 100% = plants have died, 0% = like control plants
In short: as §2

[10] = system: Echinochloa crus-galli (ECHCG); assay: Herbicidal post-emergence action (Table B1); details: rated visually after about 3 weeks, 100% = plants have died, 0% = like control plants
In short: as §1

[11] = system: Abutilon theophrasti (ABUTH); assay: Herbicidal post-emergence action (Table B5); details: rated visually after about 3 weeks, 100% = plants have died, 0% = like control plants
In short: as §1

[12] = system: Amaranthus retroflexus (AMARE); assay: Herbicidal post-emergence action (Table B6); details: visual rating about 3 weeks after treatment, 100% = plants have died, 0% = like control plants
In short: as §1

Bassia scoparia (KCHSC) [13] = assay: Herbicidal pre-emergence action, test C (Table C11); details: visual scoring vs untreated controls
Source text: as §3

[14] = system: Alopecurus myosuroides (ALOMY); assay: Herbicidal post-emergence action (Table B9); details: rated visually after about 3 weeks, 100% = plants have died, 0% = like control plants
In short: as §1

[15] = system: Matricaria inodora (MATIN); assay: Herbicidal pre-emergence action, test C (Table C7); details: visual scoring after about 3 weeks, 100% = plants have died, 0% = like control plants
In short: as §2

[16] = system: harmful plants ABUTH, AMARE, ECHCG, LOLRI, MATIN, POAAN, SETVI, STEME, ALOMY, DIGSA, KCHSC and VERPE; assay: Herbicidal post-emergence action, summary of Tables B1-B12; details: application rate of 1280 or 320 g of active ingredient per hectare; summary in words
In short: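 Activity scored by eye roughly 3 weeks post-treatment against untreated plants, from 0% (no effect) to 100% (plants dead). Application rates were 1280 or 320 g/ha, as aqueous WP/EC spray plus 0.5% additive at 600 L/ha, onto one-leaf-stage weeds grown 2–3 weeks in sandy loam.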

Veronica persica (VERPE) [17] = assay: Herbicidal pre-emergence action, test C (Table C12); details: dosage 1280 g/ha, visual scoring vs untreated controls
In short: as §2

[18] = system: harmful plants ABUTH, AMARE, ECHCG, LOLRI, MATIN, POAAN, SETVI, STEME, ALOMY, DIGSA, KCHSC and VERPE; assay: Herbicidal pre-emergence action (test C), summary of Tables C1-C12; details: application rate of 1280 or 320 g of active ingredient per hectare; summary in words
In short: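 Visual % damage versus untreated plants (0% = like control, 100% = died) was scored after about 3 weeks in the greenhouse. Before emergence, seeds sown in sandy loam got a soil-surface spray of compound as WP or EC plus 0.5% additive, using 600 L/ha water at rates of 1280 or 320 g/ha.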

Poa annua (POAAN) [19] = assay: Herbicidal post-emergence action (Table B3); details: rated visually after about 3 weeks, 100% = plants have died, 0% = like control plants
In short: as §1

[20] = system: Digitaria sanguinalis (DIGSA); assay: Herbicidal pre-emergence action, test C (Table C10); details: dosage 1280 g/ha; visual scoring after about 3 weeks; 100% = plants have died, 0% = like control plants
In short: as §2

[21] = system: Amaranthus retroflexus (AMARE); assay: Herbicidal pre-emergence action, test C (Table C6); details: visual scoring after about 3 weeks, 100% = plants have died, 0% = like control plants
In short: as §2

Lolium rigidum (LOLRI) [22] = assay: Herbicidal post-emergence action (Table B2); details: 1280 g/ha; rated visually after about 3 weeks; 100% = plants have died, 0% = like control plants
Experimental: Seeds of mono- and dicotyledonous weed plants were placed in plastic pots in sandy loam soil (doubly sown with in each case one species of mono- or dicotyledonous weed plants per pot), covered with soil and cultivated in a greenhouse under controlled growth conditions. 2 to 3 weeks after sowing, the test plants were treated at the one-leaf stage. The compounds of the invention, formulated in the form of wettable powders (WP) or as emulsion concentrates (EC), were applied onto the green parts of the plants as aqueous suspension or emulsion with addition of 0.5% additive at a water application rate of 600 liters per hectare (converted). After the test plants had been kept in the greenhouse under optimum growth conditions for about 3 weeks, the activity of the preparations was rated visually in comparison to untreated controls. For example, 100% activity=the plants have died, 0% activity=like control plants. Tables B1 to B12 below show the effects of selected compounds of the general formula (I) according to Table 1 on various harmful plants and an application rate corresponding to 1280 or 320 g/ha, which were obtained by the experimental procedure mentioned above.

Lolium rigidum (LOLRI) [23] = assay: Herbicidal pre-emergence action, test C (Table C2); details: dosage 1280 g/ha; visual scoring after about 3 weeks; 100% = plants have died, 0% = like control plants
Source text: as §3

| SMILES | Post-emergence action against Stellaria media (STEME) (Stellaria media (STEME) [1]; dosage 320 g/ha) | Post-emergence action against Stellaria media (STEME) (Stellaria media (STEME) [1]; dosage 1280 g/ha) | Pre-emergence action against Abutilon theophrasti (ABUTH) ([2]; dosage 320 g/ha) | Pre-emergence action against Abutilon theophrasti (ABUTH) ([2]; dosage 1280 g/ha) | Pre-emergence action against Echinochloa crus-galli (ECHCG) [7] | Pre-emergence action against Stellaria media (STEME) (Stellaria media (STEME) [8]; dosage 320 g/ha) | Pre-emergence action against Stellaria media (STEME) (Stellaria media (STEME) [8]; dosage 1280 g/ha) | Pre-emergence action against Setaria viridis (SETVI) (Setaria viridis (SETVI); dosage 1280 g/ha) | Pre-emergence action against Poa annua (POAAN) (Poa annua (POAAN) [9]; dosage 320 g/ha) | Pre-emergence action against Poa annua (POAAN) (Poa annua (POAAN) [9]; dosage 1280 g/ha) | Post-emergence action against Echinochloa crus-galli (ECHCG) ([10]; 320 g/ha) | Post-emergence action against Echinochloa crus-galli (ECHCG) ([10]; 1280 g/ha) | Post-emergence action against Abutilon theophrasti (ABUTH) ([11]; 320 g/ha) | Post-emergence action against Abutilon theophrasti (ABUTH) ([11]; 1280 g/ha) | Post-emergence action against Amaranthus retroflexus (AMARE) ([12]; dosage 320 g/ha) | Post-emergence action against Amaranthus retroflexus (AMARE) ([12]; dosage 1280 g/ha) | Pre-emergence action against Matricaria inodora (MATIN) ([15]; dosage 1280 g/ha) | herbicidal activity against the harmful plants of Tables B1-B12 in post-emergence treatment [16] | herbicidal activity against the harmful plants of Tables C1-C12 in pre-emergence treatment [18] | Post-emergence action against Poa annua (POAAN) (Poa annua (POAAN) [19]; 320 g/ha) | other results |
| --- | --- | --- | --- | --- | --- | --- | --- | --- | --- | --- | --- | --- | --- | --- | --- | --- | --- | --- | --- | --- | --- |
| FC(F)c1cc(-c2ccccc2Oc2ccccn2)on1 [Example 1-38] | 100% | 100% | 100% | 100% | 100% | 100% | 100% | 100% | 100% | 100% | 90% | 100% | 100% | 100% | 100% | 100% | 100% | very good herbicidal activity | very good herbicidal activity | 100% | Post-emergence action against Digitaria sanguinalis (DIGSA) [3]: 100%; Post-emergence action against Bassia scoparia (KCHSC) (Bassia scoparia (KCHSC) [4]; dosage 320 g/ha): 90%; Post-emergence action against Bassia scoparia (KCHSC) (Bassia scoparia (KCHSC) [4]; dosage 1280 g/ha): 100%; Pre-emergence action against Alopecurus myosuroides (ALOMY) ([5]; dosage 320 g/ha): 90%; Pre-emergence action against Alopecurus myosuroides (ALOMY) ([5]; dosage 1280 g/ha): 100%; Post-emergence action against Veronica persica (VERPE) (Veronica persica (VERPE) [6]; dosage 320 g/ha): 100%; Post-emergence action against Veronica persica (VERPE) (Veronica persica (VERPE) [6]; dosage 1280 g/ha): 100%; Pre-emergence action against Bassia scoparia (KCHSC) (Bassia scoparia (KCHSC) [13]; dosage 320 g/ha): 100%; Pre-emergence action against Bassia scoparia (KCHSC) (Bassia scoparia (KCHSC) [13]; dosage 1280 g/ha): 100%; Post-emergence action against Alopecurus myosuroides (ALOMY) ([14]; 320 g/ha): 100%; Post-emergence action against Alopecurus myosuroides (ALOMY) ([14]; 1280 g/ha): 100%; Pre-emergence action against Veronica persica (VERPE) (Veronica persica (VERPE) [17]): 100%; Post-emergence action against Poa annua (POAAN) (Poa annua (POAAN) [19]; 1280 g/ha): 100%; Pre-emergence action against Digitaria sanguinalis (DIGSA) [20]: 100%; Pre-emergence action against Amaranthus retroflexus (AMARE) ([21]; dosage 320 g/ha): 100%; Pre-emergence action against Amaranthus retroflexus (AMARE) ([21]; dosage 1280 g/ha): 100% |
| Fc1cccc(Oc2ccccn2)c1-c1cc(C(F)F)no1 [Example 1-16] | 100% | 100% | 100% | 100% | 90% | 100% | 100% | 100% | 100% | 100% | 90% | 100% | 100% | 100% | 100% | 100% | 100% | very good herbicidal activity | very good herbicidal activity | 100% | Post-emergence action against Lolium rigidum (LOLRI) (Lolium rigidum (LOLRI) [22]): 100%; Pre-emergence action against Lolium rigidum (LOLRI) (Lolium rigidum (LOLRI) [23]): 100%; Pre-emergence action against Setaria viridis (SETVI) (Setaria viridis (SETVI); dosage 320 g/ha): 100%; Pre-emergence action against Matricaria inodora (MATIN) ([15]; dosage 320 g/ha): 90%; Post-emergence action against Poa annua (POAAN) (Poa annua (POAAN) [19]; 1280 g/ha): 100%; Pre-emergence action against Amaranthus retroflexus (AMARE) ([21]; dosage 320 g/ha): 100%; Pre-emergence action against Amaranthus retroflexus (AMARE) ([21]; dosage 1280 g/ha): 100% |
